US20240150293A1, “SPIROCYCLOHEXANE DERIVATIVES, PHARMACEUTICAL COMPOSITIONS CONTAINING THEM AND THEIR USES AS ANTI-APOPTOTIC INHIBITORS” (LES LABORATOIRES SERVIER, priority 2021, published 2024)
Read-outs that look alike come from different tables or passages of the source.

Assays:
[1] = biological target: Cy5-labelled Mcl1 (amino acids 171-321) C286S protein (UniProtKB Q07820) (Homo sapiens (Human), UniProt Q07820, C286S); assay: Inhibition of Mcl-1 by the fluorescence quenching assay (Example A, Method B); assay type: binding
Sequence of Cy5-labelled Mcl1 (amino acids 171-321) C286S protein (Q07820 171-321 C286S): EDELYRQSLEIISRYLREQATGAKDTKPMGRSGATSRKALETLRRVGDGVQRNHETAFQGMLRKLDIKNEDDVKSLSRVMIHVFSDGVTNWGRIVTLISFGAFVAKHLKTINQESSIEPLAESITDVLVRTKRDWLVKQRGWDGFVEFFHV
How it was run: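 Cy5-labelled Mcl1 171-321 C286S (1 nM) quenched by TQ5WS-labelled PUMA peptide (10, 20 or 400 nM); displacement raises fluorescence (Ex 620/Em 680 nm). Buffer 10 mM HEPES, 150 mM NaCl, 0.05% Tween 20, pH 7.4, 5% DMSO; 2 h at room temperature, 11-point curves, IC50 converted to Ki (cKi/eKi).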

[2] = test system: H929 multiple myeloma tumor line; assay: In vitro cytotoxicity, MTT assay (Example B, Method A); assay type: cell-based; conditions: H929 cells, 48 hours exposure, read-out: C50
Experimental: The cytotoxicity studies were carried out on the H929 multiple myeloma tumor line.
The cells are distributed onto microplates and exposed to the test compounds for 48 hours. The cell viability is then quantified by a colorimetric assay, the Microculture Tetrazolium Assay (Carmichael et al, Cancer Res. 1987, 47, 939-942).
The results are expressed in C50 which means concentration corresponding to […] of effect/inhibition.

Ki [1] [nM]	Structure (SMILES)	IC50 ([2]; Homo sapiens, NCI-H929, 48 h) [nM]	IC50 [2] [nM]
27.7	C[C@@H](COc1ccnc2c1[C@H](C)CCC2)C[C@H]1Cc2ccccc2[C@]12CC[C@@](Nc1cc(Cl)ccc1F)(C(=O)O)CC2 [Example 705, (1r,2′S,4S)-4-(5-chloro-2-fluoroanilino)-2′-[(2R)-2-methyl-3-{[(5R)-5-methyl-5,6,7,8-tetrahydroquinolin-4-yl]oxy}propyl]-2′,3′-dihydrospiro[cyclohexane-1,1′-indene]-4-carboxylic acid]	2750	
6.4	Cc1ccc(N[C@]2(C(=O)O)CC[C@]3(CC2)c2ccccc2C[C@@H]3C[C@@H](C)COc2ccnc3c2[C@H](C)CCC3)cc1Cl [Example 709, (1r,2′S,4S)-4-(3-chloro-4-methylanilino)-2′-[(2R)-2-methyl-3-{[(5R)-5-methyl-5,6,7,8-tetrahydroquinolin-4-yl]oxy}propyl]-2′,3′-dihydrospiro[cyclohexane-1,1′-indene]-4-carboxylic acid]	1010	
4.75	C[C@@H](COc1ccnc2c1[C@H](C)CCC2)C[C@H]1Cc2ccccc2[C@]12CC[C@@](Nc1ccnc(Cl)c1)(C(=O)O)CC2 [Example 714, (1r,2′S,4S)-4-[(2-chloropyridin-4-yl)amino]-2′-[(2R)-2-methyl-3-{[(5R)-5-methyl-5,6,7,8-tetrahydroquinolin-4-yl]oxy}propyl]-2′,3′-dihydrospiro[cyclohexane-1,1′-indene]-4-carboxylic acid]	1260	
3.63	C[C@@H](COc1ccnc2c1[C@H](C)CC[C@H]2F)CC1=Cc2cc(F)ccc2[C@]12CC[C@@](Nc1cccc(Cl)c1)(C(=O)O)CC2 [Example 772, (1r,4R)-4-(3-chloroanilino)-5′-fluoro-2′-[(2R)-3-{[(5R,8R)-8-fluoro-5-methyl-5,6,7,8-tetrahydroquinolin-4-yl]oxy}-2-methylpropyl]spiro[cyclohexane-1,1′-indene]-4-carboxylic acid]	126	
4.71	C[C@@H](COc1ccnc2c1[C@H](C)CCC2)C[C@H]1Cc2ccccc2[C@]12CC[C@@](Nc1cccc(C#N)c1)(C(=O)O)CC2 [Example 716, (1r,2′S,4S)-4-(3-cyanoanilino)-2′-[(2R)-2-methyl-3-{[(5R)-5-methyl-5,6,7,8-tetrahydroquinolin-4-yl]oxy}propyl]-2′,3′-dihydrospiro[cyclohexane-1,1′-indene]-4-carboxylic acid]	311	
1450	C[C@@H](COc1ccnc2c1[C@@H](C)CCC2)C[C@H]1Cc2ccccc2[C@]12CC[C@@](Cc1cccc(Cl)c1)(C(=O)O)CC2 [Example 719, (1s,2′S,4R)-4-[(3-chlorophenyl)methyl]-2′-[(2R)-2-methyl-3-{[(5S)-5-methyl-5,6,7,8-tetrahydroquinolin-4-yl]oxy}propyl]-2′,3′-dihydrospiro[cyclohexane-1,1′-indene]-4-carboxylic acid]	13200	
0.349	CC(O)c1ccc2c(c1)[C@]1(CC[C@@](Nc3cccc(Cl)c3)(C(=O)O)CC1)[C@@H](C[C@@H](C)COc1ccnc3ccsc13)C2 (stereo partly drawn) [Example 722, (1r,2′S,4S)-4-(3-chloroanilino)-6′-(1-hydroxyethyl)-2′-{(2R)-2-methyl-3-[(thieno[3,2-b]pyridin-7-yl)oxy]propyl}-2′,3′-dihydrospiro[cyclohexane-1,1′-indene]-4-carboxylic acid]	244	
0.0699	CC(=O)c1ccc2c(c1)[C@]1(CC[C@@](Nc3cccc(Cl)c3)(C(=O)O)CC1)[C@@H](C[C@@H](C)COc1ccnc3c1[C@H](C)CCC3)C2 [Example 858, (1r,2′S,4S)-6′-acetyl-4-(3-chloroanilino)-2′-[(2R)-2-methyl-3-{[(5R)-5-methyl-5,6,7,8-tetrahydroquinolin-4-yl]oxy}propyl]-2′,3′-dihydrospiro[cyclohexane-1,1′-indene]-4-carboxylic acid]	50.6	
2.12	CC(O)c1ccc2c(c1)[C@]1(CC[C@@](Nc3cccc(Cl)c3)(C(=O)O)CC1)[C@H](C[C@@H](C)COc1ccnc3ccsc13)C2 (stereo partly drawn) [Example 721, (1r,2′R,4R)-4-(3-chloroanilino)-6′-(1-hydroxyethyl)-2′-{(2R)-2-methyl-3-[(thieno[3,2-b]pyridin-7-yl)oxy]propyl}-2′,3′-dihydrospiro[cyclohexane-1,1′-indene]-4-carboxylic acid]	670	
4.17	CC(=O)c1cc2c(cc1F)C=C(C[C@@H](C)COc1ccnc3c1[C@@H](C)CCC3)[C@]21CC[C@](Nc2cccc(Cl)c2)(C(=O)O)CC1 [Example 873, (1r,4R)-6′-acetyl-4-(3-chloroanilino)-5′-fluoro-2′-[(2R)-2-methyl-3-{[(5S)-5-methyl-5,6,7,8-tetrahydroquinolin-4-yl]oxy}propyl]spiro[cyclohexane-1,1′-indene]-4-carboxylic acid]	341	
0.827	C[C@@H](COc1ccnc2c1[C@H](C)CCC2)CC1Cc2c(Cl)cccc2[C@]12CC[C@@](Nc1cccc(Cl)c1)(C(=O)O)CC2 (single isomer, unassigned) [Example 740]		45.9
0.661	C[C@@H](COc1ccnc2c1[C@H](C)CCC2)C[C@H]1Cc2ccc(F)cc2[C@]12CC[C@@](Nc1cccc(Cl)c1)(C(=O)O)CC2 [Example 765, (1r,2′S,4S)-4-(3-chloroanilino)-6′-fluoro-2′-[(2R)-2-methyl-3-{[(5R)-5-methyl-5,6,7,8-tetrahydroquinolin-4-yl]oxy}propyl]-2′,3′-dihydrospiro[cyclohexane-1,1′-indene]-4-carboxylic acid]	210	

Second part, the compound before the results:

Structure (SMILES)	Ki [1] [nM]	IC50 ([2]; Homo sapiens, NCI-H929, 48 h) [nM]	IC50 [2] [nM]
C[C@@H]1CCCc2nccc(OCC(CC3=Cc4ccccc4[C@]34CC[C@@](Nc3cccc(Cl)c3)(C(=O)O)CC4)C(F)F)c21 (single isomer, unassigned) [Example 516]	28		3860
CCCC#C[C@@H](COc1ccnc2ccsc12)CC1=Cc2ccccc2[C@]12CC[C@@](Nc1cccc(Cl)c1)(C(=O)O)CC2 [Example 565, (1r,4S)-4-(3-chloroanilino)-2′-[(2S)-2-{[(thieno[3,2-b]pyridin-7-yl)oxy]methyl}hept-3-yn-1-yl]spiro[cyclohexane-1,1′-indene]-4-carboxylic acid]	10.8	2390	
C[C@@H](COc1ccnc2c1C(F)(F)CCC2)C[C@H]1Cc2ccccc2[C@]12CC[C@@](Nc1cccc(Cl)c1)(C(=O)O)CC2 [Example 693, (1r,2′S,4S)-4-(3-chloroanilino)-2′-{(2R)-3-[(5,5-difluoro-5,6,7,8-tetrahydroquinolin-4-yl)oxy]-2-methylpropyl}-2′,3′-dihydrospiro[cyclohexane-1,1′-indene]-4-carboxylic acid]	3.7	527	
C[C@@H](COc1ccnc2c1[C@@H](CC(F)(F)F)CCC2)C[C@H]1Cc2ccccc2[C@]12CC[C@@](Nc1cccc(Cl)c1)(C(=O)O)CC2 [Example 694, (1r,2′S,4S)-4-(3-chloroanilino)-2′-[(2R)-2-methyl-3-{[(5R)-5-(2,2,2-trifluoroethyl)-5,6,7,8-tetrahydroquinolin-4-yl]oxy}propyl]-2′,3′-dihydrospiro[cyclohexane-1,1′-indene]-4-carboxylic acid]	100	6290	
CC[C@H]1CC[C@H](F)c2nccc(OC[C@H](C)C[C@H]3Cc4ccccc4[C@]34CC[C@@](Nc3cccc(Cl)c3)(C(=O)O)CC4)c21 [Example 696, (1r,2′S,4S)-4-(3-chloroanilino)-2′-[(2R)-3-{[(5S,8S)-5-ethyl-8-fluoro-5,6,7,8-tetrahydroquinolin-4-yl]oxy}-2-methylpropyl]-2′,3′-dihydrospiro[cyclohexane-1,1′-indene]-4-carboxylic acid]	103	5070	
C[C@H]1Cc2nccc(OC[C@H](C)C[C@H]3Cc4ccccc4[C@]34CC[C@@](Nc3cccc(Cl)c3)(C(=O)O)CC4)c2[C@H](C)C1 [Example 667, (1r,2′S,4S)-4-(3-chloroanilino)-2′-[(2R)-3-{[(5R,7R)-5,7-dimethyl-5,6,7,8-tetrahydroquinolin-4-yl]oxy}-2-methylpropyl]-2′,3′-dihydrospiro[cyclohexane-1,1′-indene]-4-carboxylic acid]	4.05	574	
C[C@@H]1CCCc2nccc(OCC(F)CC3Cc4ccccc4[C@]34CC[C@@](Nc3cccc(Cl)c3)(C(=O)O)CC4)c21 (single isomer, unassigned) [Example 510]	1.51		252
C[C@@H](COc1ccnc2c1[C@H]1CCC[C@H]1C2)C[C@H]1Cc2ccccc2[C@]12CC[C@@](Nc1cccc(Cl)c1)(C(=O)O)CC2 (single isomer, unassigned) [Example 620, (1r,2′S,4S)-4-(3-chloroanilino)-2′-[(2R)-3-{[(4bR*,7aR*)-4b,5,6,7,7a,8-hexahydropentaleno[2,1-b]pyridin-4-yl]oxy}-2-methylpropyl]-2′,3′-dihydrospiro[cyclohexane-1,1′-indene]-4-carboxylic acid]	12.7		889
O=C(O)[C@]1(Nc2cccc(Cl)c2)CC[C@]2(CC1)C(CC(F)COc1ccnc3c1CCCC3)=Cc1ccccc12 (single isomer, unassigned) [Example 506, (1r,4r)-4-(3-chloroanilino)-2′-{2-fluoro-3-[(5,6,7,8-tetrahydroquinolin-4-yl)oxy]propyl}spiro[cyclohexane-1,1′-indene]-4-carboxylic acid]	49.2		2790
